A short description of data set [1]: physchem. The class given is physicochemical. As for the experimental part: (§1) A Whatman C-18 column (4.6 mm×108 mm) was connected to a Spectra-Physics component system consisting of a SP 8810 precision isocratic pump, Rheodyne 7125 injector (20 μL injection volume), SP 8450 UV/VIS variable wavelength detector (230 nm), and SP 4290 integrator. The system was operated at ambient temperature. The mobile phase consisted of acetonitrile, acetic acid and water (60:0.1:40). At a flow rate of 1.0 mL/minute, the retention times for the test compounds were 4.74 minutes for Compound A, 5.84 minutes for Compound B, 6.93 minutes for Compound C, and 5.72 minutes for Compound D.
(§2) HPLC peak area and peak height were used as a measure of the concentration of the test compounds and plotted against time to evaluate the disappearance rates of the compounds. The stability was determined by measuring the pseudo-first order rate constant (kobs in min^-1) or half-life (t1/2 in min) of disappearance of the test compound in buffer. […].
The stabilities of test compounds A, B, C, and D, were tested in buffer solutions in the pH range of 4.0 to 9.0. A 0.1 mL portion of each compound at a concentration of 1 mM was mixed with 10 mL phosphate buffer (made by combining 0.05 M of NaH2 PO4 and 0.05 M of Na2 HPO4 with 0.05 M of NaCl) to give a final concentration of 0.01 mM. The mixtures were incubated at 37° C., and samples were taken and injected in the HPLC system at appropriate time intervals. pH profiles of each test compound are shown in TABLE III below. […]

The nature of data set [2]: Stability in rat blood. In kind it is in vitro ADME. The conditions noted are these: rat, blood. As for the experimental part:
as §1, §2
(§3) A 0.2 mL aliquot of stock solution (1 mM) of each of the test compounds A, B, C, and D, was added to 2 mL of each biological media (whole heparinized rat blood, 20% rat liver homogenate, and 6-volume diluted lung homogenate in isotonic buffer of pH 7.40 made by combining 0.05 M of Na2 HPO4 and 0.05 M of NaH2 PO4 with 0.05 M of NaCl), which was kept in a 37° C. water bath, to obtain a final concentration of 0.1 mM in each biological medium. Samples of 0.1 mL were taken at appropriate time intervals for 2 hours (at 0, 3, 5, 10, 20, 40, 60, 90 and 120 minutes) and mixed with 0.2 mL of acetonitrile containing 5% DMSO. Each mixture was centrifuged and the supernatant was injected in the HPLC.

A short description of data set [3]: Stability in liver homogenate. The class given is in vitro ADME, rat. Particulars: rat, liver homogenate. The protocol:
as §1, §2, §3

Data set [4] is described as follows: Stability in lung homogenate. In kind it is in vitro ADME. The conditions noted are these: rat, lung homogenate. As for the experimental part: as §1, §2, §3
For data set [5], the system named is forearm of a human volunteer. In words: Human vasoconstriction test. Particulars: 10 mM. The class given is in vivo. The arrangement: key: 0 = normal skin, 4 = very intense pallor. As for the experimental part:
Test compounds (10 mM) were dissolved in ethanol/propylene glycol (9/1) solution, and 50 μL of the mixtures were applied to circular patches, 8 mm in diameter. After ethanol evaporation, the patches were applied to the forearm of a human volunteer, and covered with a water impervious film for 3 hours. The intensity of vasoconstriction was judged 1, 8, 17 and 24 hours after the patches were removed.
The grading scale for the vasoconstriction activity was as follows: 0, normal skin; 1, slight pallor of indistinct outline; 2, pallor with at least two corners outlined; 3, even pallor with a clear outline of the application sites; 4, very intense pallor.

The nature of data set [6]: Stability in human plasma. In kind it is in vitro ADME. The conditions noted are these: human, plasma. As for the experimental part: (§4) A Waters NOVA-PAK phenyl column was connected to a Spectra-Physics component system consisting of a SP 8810 precision isocratic pump, a Rheodyne 7125 injector (injection volume 20 μL), an SP 8450 UV/VIS variable wavelength detector (operated at 254 nm) and a SP 4270 integrator. […]. The retention times of compound of the invention J and its metabolities L and M were 8.64, 2.70 and 2.45 minutes, respectively. The retention times of compound of the invention I and its metabolites N and 0 were 5.84, 2.70 and 1.81 minutes, respectively. The retention time of cortienic acid was 1.00 minute.
(§5) Freshly collected human or rat plasma was used. An aliquot of 10 mM test compound in ethanol solution was added to prewarmed (37° C.) plasma to yield a final concentration of 100 μM. At appropriate time intervals, samples (0.1 mL) were removed and mixed with 0.2 mL of 5% dimethylsulfoxide/acetonitrile solution. Mixtures were centrifuged and supernatants were analyzed by HPLC. The pseudo-first order rate constant of the disappearance of compound in the biological media was determined by linear regression analysis from the plot of log peak area and peak height versus time.
(§6) Stability was evaluated by the pseudo first-order rate constant (k, hr^-1) and half-life (t1/2, hr) of the disappearance of the test compound in the media.

Data set [7] can be described thus: Stability in rat plasma. The class given is in vitro ADME. The conditions noted are these: rat, plasma. The protocol: as §4, §5, §6
For data set [8], the system named is forearm of a human volunteer. Kind of data set: Further human vasoconstriction testing, Method 2. The arrangement: key: +: "positive" (pallor could be observed); -: "negative" (pallor could not be detected). In kind it is in vivo. As for the experimental part:
The mixtures, in 20 μL amounts, were applied to circular patches (1/4 inch diameter). The patches were applied to the forearm of a human volunteer, and covered with a water impervious film for 3 hr. Vasoconstriction activity was judged by the appearance of pallor at various time points after the patches were removed. Tests were performed on the same person and the results were obtained from 2-4 observations.
In TABLE XIV above, "-" means a negative result was obtained. In other tables herein, "-" means not tested.
In TABLE XIV above, the results of a simpler method of judging vasoconstriction activity was used in which only "positive" (pallor could be observed) or "negative" (pallor could not be detected) results were recorded.

[9] abbreviates: aqueous phosphate buffer, pH 4.5.
[10] abbreviates: aqueous phosphate buffer, pH 6.56.
Setting [11] is: aqueous phosphate buffer, pH 7.4.
Setting [12] is: aqueous phosphate buffer, pH 8.08.

A word on the half-life: it is how long it takes for the measured level to halve.

Consider `C[C@]12C=CC(=O)C=C1CC[C@@H]1[C@@H]2[C@@H](O)C[C@@]2(C)[C@H]1CC[C@]2(OC(=O)C(Cl)Cl)C(=O)OCCl` [Compound D, Chloromethyl 17α-dichloroacetoxy-11β-hydroxyandrosta-1,4-dien-3-one-17β-carboxylate], for which the half-life was determined as 841 min in data set [1] (setting [9]); 49.3 min in data set [1] (setting [10]); 13.9 min in data set [1] (setting [11]); 2.9 min in data set [1] (setting [12]); 1.07 min in data set [1] (aqueous phosphate buffer, pH 9); 13.9 min in data set [1] (buffer, pH 7.4). Moreover, the half-life at 100 µM in data set [2] worked out at 11.6 min; in data set [3], 7.6 min; in data set [4], 52.4 min. The Vasoconstriction activity in data set [5] (1 hour after patch removal) is on record as 3; in data set [5] (8 hours after patch removal) it was 4; in data set [5] (17 hours after patch removal) it was 3; in data set [5] (24 hours after patch removal) it was 2.
On to `COC(=O)[C@@]1(OC(=O)C(Cl)Cl)[C@H](C)C[C@H]2[C@@H]3CCC4=CC(=O)C=C[C@]4(C)[C@@]3(F)[C@@H](O)C[C@@]21C` [Compound I, methyl 17α-dichloroacetoxy-9α-fluoro-11β-hydroxy-16α-methylandrosta-1,4-dien-3-one-17β-carboxylate], for which the half-life at 100 µM in data set [6] was 656 min; in data set [7] it was 593 min. Also, the Vasoconstriction activity result in data set [8] (4 Hours, 0.01 mM) is “-”; in data set [8] (4 Hours, 0.05 mM) it was “-”; in data set [8] (4 Hours, 0.1 mM) it was “+”; in data set [8] (4 Hours, 0.5 mM) it was “+”; in data set [8] (4 Hours, 1 mM) it was “+”; in data set [8] (4 Hours, 5 mM), “+”. Besides, the Vasoconstriction activity entry in data set [8] (8 Hours, 0.01 mM) is reported as “-”; in data set [8] (8 Hours, 0.05 mM) it was “+”; in data set [8] (8 Hours, 0.1 mM) it was “+”; in data set [8] (8 Hours, 0.5 mM), “+”; in data set [8] (8 Hours, 1 mM), “+”; in data set [8] (8 Hours, 5 mM), “+”. Moreover, the Vasoconstriction activity entry is “-” in data set [8] (10-22 hours, 0.01 mM); “-” in data set [8] (10-22 hours, 0.05 mM); “+” in data set [8] (10-22 hours, 0.1 mM); “+” in data set [8] (10-22 hours, 0.5 mM); “+” in data set [8] (10-22 hours, 1 mM); “+” in data set [8] (10-22 hours, 5 mM). Also, the Vasoconstriction activity result in data set [8] (24 Hours, 0.01 mM) is on record as “-”; in data set [8] (24 Hours, 0.05 mM), “-”; in data set [8] (24 Hours, 0.1 mM), “+”; in data set [8] (24 Hours, 0.5 mM), “+”; in data set [8] (24 Hours, 1 mM), “+”; in data set [8] (24 Hours, 5 mM), “+”.
Regarding `COC(=O)[C@@]1(OC(=O)C(Cl)Cl)CC[C@H]2[C@@H]3CCC4=CC(=O)C=C[C@]4(C)[C@H]3[C@@H](O)C[C@@]21C` [Compound A, Methyl 17α-dichloroacetoxy-11β-hydroxyandrosta-1,4-dien-3-one-17β-carboxylate], the half-life in data set [1] (setting [9]) was more than 2880 min; in data set [1] (setting [10]), 1150 min; in data set [1] (setting [11]), 202 min; in data set [1] (setting [12]) it was 21 min; in data set [1] (aqueous phosphate buffer, pH 9), 4.25 min; in data set [1] (buffer, pH 7.4), 202 min. For the same compound, the half-life at 100 µM was determined as 26.9 min in data set [2], 3.7 min in data set [3] and 43.1 min in data set [4]. Further, the Vasoconstriction activity in data set [5] (1 hour after patch removal) amounted to 2; in data set [5] (8 hours after patch removal), 4; in data set [5] (17 hours after patch removal), 4; in data set [5] (24 hours after patch removal) it was 4.
`CCCCC(=O)O[C@]1(C(=O)CO)[C@@H](C)C[C@H]2[C@@H]3CCC4=CC(=O)C=C[C@]4(C)[C@@]3(F)[C@@H](O)C[C@@]21C` [Betamethasone 17-valerate, reference compound]: the Vasoconstriction activity result in data set [8] (4 Hours, 0.01 mM) is “-”; in data set [8] (4 Hours, 0.05 mM), “-”; in data set [8] (4 Hours, 0.1 mM) it was “-”; in data set [8] (4 Hours, 0.5 mM), “-”; in data set [8] (4 Hours, 1 mM), “+”; in data set [8] (4 Hours, 5 mM), “+”. In addition, the Vasoconstriction activity result in data set [8] (8 Hours, 0.01 mM) was “-”; in data set [8] (8 Hours, 0.05 mM) it was “-”; in data set [8] (8 Hours, 0.1 mM), “-”; in data set [8] (8 Hours, 0.5 mM), “+”; in data set [8] (8 Hours, 1 mM) it was “+”; in data set [8] (8 Hours, 5 mM) it was “+”. The Vasoconstriction activity result in data set [8] (10-22 hours, 0.01 mM) is “-”; in data set [8] (10-22 hours, 0.05 mM), “-”; in data set [8] (10-22 hours, 0.1 mM) it was “-”; in data set [8] (10-22 hours, 0.5 mM), “+”; in data set [8] (10-22 hours, 1 mM) it was “+”; in data set [8] (10-22 hours, 5 mM), “+”. Moreover, the Vasoconstriction activity entry in data set [8] (24 Hours, 0.01 mM) is on record as “-”; in data set [8] (24 Hours, 0.05 mM), “-”; in data set [8] (24 Hours, 0.1 mM), “-”; in data set [8] (24 Hours, 0.5 mM) it was “-”; in data set [8] (24 Hours, 1 mM) it was “+”; in data set [8] (24 Hours, 5 mM), “+”.
Turning to `CC(C)OC(=O)[C@@]1(OC(=O)C(Cl)Cl)CC[C@H]2[C@@H]3CCC4=CC(=O)C=C[C@]4(C)[C@H]3[C@@H](O)C[C@@]21C` [Compound C, Isopropyl 17α-dichloroacetoxy-11β-hydroxyandrosta-1,4-dien-3-one-17β-carboxylate], the half-life in data set [1] (setting [9]) was more than 2880 min; in data set [1] (setting [10]), 680 min; in data set [1] (setting [11]), 974 min; in data set [1] (setting [12]), 125 min; in data set [1] (aqueous phosphate buffer, pH 9), 16.2 min; in data set [1] (buffer, pH 7.4), 658 min. Further, the half-life at 100 µM came to 107 min in data set [2], 29.3 min in data set [3] and 170 min in data set [4]. In addition, the Vasoconstriction activity is given as 3 in data set [5] (1 hour after patch removal), 4 in data set [5] (8 hours after patch removal), 3 in data set [5] (17 hours after patch removal) and 2 in data set [5] (24 hours after patch removal).

For the origin of these results see US5981517A, “Androstene derivatives” (priority 1997, dated 1999).
